# In patent US20250114424A1, “PLANT EXTRACT-BASED COMPOSITION AND ITS USE FOR TREATING GLUCOSE METABOLISM DISORDERS” (ESSERRE PHARMA SRL, priority 2021, published 2025):
# Tests used:
# [1] = tested on: subjects with type II diabetes mellitus; details: 500 mg daily for 6 weeks; cited from earlier work
# [2] = tested on: semi-professional cyclists; details: single dose of 500 mg; cited from earlier work
# [3] = cited from earlier work
# [4] = tested on: rats with streptozocin-induced diabetes; details: 40 mg/kg for 30 days; cited from earlier work
# [5] = in vivo; cited from earlier work
# [6] = tested on: incidence of diabetes; details: pharmacological treatment vs lifestyle changes (58%); cited from earlier work
# [7] = tested on: adult individuals with dysglycaemia (baseline blood glucose between 100 and 125 mg/dL); test: Clinical evaluation of the efficacy of the composition: double-blind, placebo-controlled pilot clinical study, 12 weeks; type: in vivo, humans
# Procedure: A single-centre, […], double-blind, placebo-controlled, pilot clinical study was conducted to evaluate the efficacy of the composition object of the present invention on humans in reducing insulin resistance-related risk factors. The study was carried out in accordance with the guidelines of the Helsinki Declaration and approved by the Ethics Committee of the Hospital. 100 adult individuals of both sexes were enrolled (47 women and 53 men, aged 20 to 75 years) with dysglycaemia (baseline blood glucose between 100 and 125 mg/dL on at least two consecutive occasions), in primary prevention for cardiovascular disease.
# Exclusion criteria: dysglycaemia secondary to pathological or iatrogenic causes, systemic diseases associated with dysglycaemia, uncompensated dysthyroidism, treatment with drugs potentially interacting with glucose metabolism (for example corticosteroids, atypical antipsychotics).
# The subjects enrolled were randomized into 5 groups, each consisting of 20 individuals: • Group A: 1 tablet of active (COMP) twice daily • Group B: 1 placebo tablet twice daily • Group C: 1 tablet of lemon extract 250 mg twice daily • Group D: 1 tablet of blood orange extract 100 mg twice daily • Group E: 1 tablet of chromium 100 mcg twice daily
# All the enrolled subjects were subjected, 14 days prior to enrolment (T-14), to a pre-enrolment visit with blood tests to assess meeting the inclusion criteria. The individuals who met the TO inclusion criteria underwent a randomization visit at which the respective treatment was assigned and blood tests were performed in relation to the reference parameters.
# The study lasted 12 weeks.
# At the end of treatment (T12), the subjects were subjected to an end-of-study visit and blood tests.
# The parameters investigated in the study are: Body mass index, systolic and diastolic blood pressure, glycated haemoglobin (HbAlc) fasting plasma glucose (FPG), fasting insulinemia (FPI), HOMA-index, triglycerides, gammaGT, creatinine phosphokinase (CPK).
# The treatment called “active” or “COMPOSITION (COMP)” consists of a 570 mg tablet consisting of 250 mg lemon extract, 100 mg blood orange extract, 100 mcg chromium (as chromium picolinate), in addition to excipients such as calcium phosphate, magnesium stearate, silicon dioxide, hydroxypropyl cellulose, mono- and di-glycerides of fatty acids, microcrystalline cellulose, yellow iron oxide as a dye, coating agents. The treatment called “placebo” consists of a tablet equal in shape, weight, colour size and flavour to the active tablet but containing “inert” material for the desired effect and consists of: microcrystalline cellulose, magnesium stearate, silicon dioxide, calcium phosphate, chlorophylline dye, yellow iron oxide dye, coating agents.
# The treatments related to groups C, D and E consist of one tablet equal in appearance to the tablets of groups A and B but consisting of the single active ingredient, as described above in addition to excipients.
# The treatment tablets were packaged in anonymous white bottles, showing only the batch number consisting of an alphanumeric code and the expiration date. Neither the investigator nor the study subjects knew the contents of the bottles. The bottles of each treatment were placed in cardboard boxes containing a letter in a sealed envelope with reference to the batch number and content, to be opened only in case of need, as in cases of serious adverse events. After randomization, each study participant was given the bottle with 60 tablets for the specific treatment of the group to which they belonged.
# All the subjects were instructed to take one tablet in the morning and one in the evening for 12 weeks.
# [8] = 12-Week follow-up, 1 tablet twice daily
molecule,measurement,setting,value
"COc1ccc([C@@H]2CC(=O)c3c(O)cc(O[C@@H]4O[C@H](CO[C@@H]5O[C@@H](C)[C@H](O)[C@@H](O)[C@H]5O)[C@@H](O)[C@H](O)[C@H]4O)cc3O2)cc1O [hesperidin, 3′,5,7-trihydroxy-4′-methoxy-flavanone-7-rhamnoglucoside]",inflammation and blood pressure,[1],reduced inflammation and blood pressure
same,physical performance and oxidative stress,[2],improved physical performance and modulated oxidative stress
same,water solubility,[3],poor water solubility
same,"fasting glycaemia, insulinemia and glycated haemoglobin",[4],"reduced fasting glycaemia, insulinemia and glycated haemoglobin"
same,bioavailability,[5],low bioavailability
CN(C)C(=N)N=C(N)N [metformin],reduction in the incidence of diabetes,[6],31%
chromium picolinate,BMI,[7]; [8],26.2 ± 1.0 kg/m2
same,CPK,[7]; [8],133 ± 22 U/L
same,DBP,[7]; [8],84 ± 4 mmHg
same,FPG,[7]; [8],112 ± 4 mg/dL
same,FPI,[7]; [8],20.9 ± 1.1 μU/ml
same,Gamma-GT,[7]; [8],27 ± 6 U/L
same,HbA1c,[7]; [8],6.4 ± 0.1%
same,SBP,[7]; [8],130 ± 7 mmHg
same,TG,[7]; [8],152 ± 10 mg/dL
same,HOMA-IR,"[7]; 12-Week follow-up, 1 tablet twice daily, HOMA-IR=(FPG*FPI)/405",5.7 ± 1.8
same,BMI,[7]; Baseline,26.2 ± 1.0 kg/m2
same,CPK,[7]; Baseline,134 ± 25 U/L
same,DBP,[7]; Baseline,85 ± 6 mmHg
same,FPG,[7]; Baseline,117 ± 5 mg/dL
same,FPI,[7]; Baseline,22.9 ± 1.0 μU/ml
same,Gamma-GT,[7]; Baseline,24 ± 9 U/L
same,HbA1c,[7]; Baseline,6.4 ± 0.3%
same,SBP,[7]; Baseline,131 ± 5 mmHg
same,TG,[7]; Baseline,159 ± 12 mg/dL
same,HOMA-IR,"[7]; Baseline, HOMA-IR=(FPG*FPI)/405",6.6 ± 1.2
same,"Observed efficacy rate (%), Reduction of FPG (−)","[7]; Chromium alone 100 mcg, Group E of example 7, 12 weeks",−4.2%
same,"reductions in HbAlc, FPG, FPI, HOMA-index, triglycerides (statistical significance)","[7]; after 12 weeks of treatment, with respect to baseline and placebo",did not show statistically significant reductions
same,reduction of fasting insulinemia (FPI),[7]; after 12 weeks vs baseline,4%
same,reduction of fasting plasma glucose (FPG),[7]; after 12 weeks vs baseline,4.2%
same,reduction of glycated haemoglobin (HbAlc),[7]; after 12 weeks vs baseline,did not achieve reductions
same,reduction of HOMA index,"[7]; after 12 weeks vs baseline, HOMA-IR=(FPG*FPI)/405",13%
